Source: patent US20210393610A1, “COMPOSITIONS AND METHODS FOR TREATING GOUT AND HYPERURICEMIA” (Jiangsu Hengrui Medicine Co., Ltd., priority 2018, published 2021)

How the values were obtained:
[1] = PK interaction of the compound of Formula I-1, febuxostat and colchicine (PK parameters in plasma); conditions: for AUC: plasma, oral, AUCss of the compound of Formula I-1, geometric mean
Procedure: (§1) The subjects were screened and examined on D-21 to D-15. 0.5 mg of colchicine once a day (qd) were orally administered to those who passed the screening on an empty stomach (D-14 to D16). If the subject was receiving an uric acid-lowering therapy (including allopurinol, febuxostat, benzbromarone, probenecid and the like) at the time of screening, the drug should be withdrawn for at least 2 weeks before D1. The subjects were admitted to the phase I clinical trial ward on D-2, and medical history inquiry, physical examination, vital signs examination, 12-lead electrocardiogram (ECG) examination, blood pregnancy examination (for female of childbearing age) were conducted again [if D-2 was more than 20 days away from the screening period, then blood examination, urine routine examination, CK\CK-MB, blood biochemistry (including serum creatinine and uric acid) examination were also required].
During the hospital stay, the subjects were fasted for more than 10 hours after dinner everyday (with free access to water). […] On D2, the subjects on an empty stomach were subjected to blood sampling, followed by having a standard meal which should be eaten within 20 minutes. Except for before the drug administration and 1 hour after the drug administration, water was consumed as needed at other times. On D3 to 8, no less than 2 L of water was consumed daily. On D9, the subjects can be discharged from the hospital after completing relevant examinations and operations, with a total hospital stay of 10 days. On D16 to 23, the subjects came back to the phase I clinical trial ward for follow-up. Throughout the study period, the subjects should avoid strenuous exercise and prolonged bed rest. The drug administration scheme is detailed in Table 1.
Colchicine tablets: D-14 to D16, 0.5 mg qd, orally administered on an empty stomach; Febuxostat tablets: D1 and D8, 80 mg qd, orally administered on an empty stomach; Tablets of the compound of Formula I-1: D3 to D8, 10 mg qd, orally administered on an empty stomach.
G. Main Observation Indicator • i. PK parameters of the compound of Formula I-1, febuxostat (Ruiyang®) and colchicine in plasma.

serum uric acid (sUA) = assay: PD interaction: serum uric acid (sUA) level after separate and combined administration; format: in vivo, patients suffering from gout
Procedure: as §1
During the hospital stay, the subjects were fasted for more than 10 hours after dinner everyday (with free access to water). […] On D2, the subjects on an empty stomach were subjected to blood sampling, followed by having a standard meal which should be eaten within 20 minutes. Except for before the drug administration and 1 hour after the drug administration, water was consumed as needed at other times. On D3 to 8, no less than 2 L of water was consumed daily. […]

sUA = conditions: after 6 months; febuxostat alone group; cited from earlier work
[2] = febuxostat alone group v.s. lesinurad 400 mg plus febuxostat group; cited from earlier work
[3] = combined administration with febuxostat 80 mg
[4] = combined administration with the compound of Formula I-1, no statistical difference (P>0.05)
[5] = impact of compound of Formula I-1 on colchicine
[6] = impact of febuxostat on colchicine
[7] = single administration (colchicine 0.5 mg qd)
[8] = impact of febuxostat on the compound of Formula I-1

SMILES: COc1cc2c(c(OC)c1OC)-c1ccc(OC)c(=O)cc1[C@@H](NC(C)=O)CC2 [colchicine]
- Css, max of colchicine, geometric mean ([1]; combined administration with compound of Formula I-1 10 mg qd): 2.2048 ng/mL
- AUCss of colchicine, geometric mean [1, 3]: 18.3270 ng·h/mL
- Css, max of colchicine, geometric mean [1, 3]: 2.2601 ng/mL
- decrease of Css,max of colchicine ([1]; combined administration with febuxostat, no statistical difference (P>0.05)): 9.92%
- decrease of AUCss of colchicine [1, 4]: 9.84%
- decrease of Css,max of colchicine [1, 4]: 12.12%
- AUCss of colchicine, Ratio (combined administration vs single administration) [1, 5]: 90.16%
- Css, max of colchicine, Ratio (combined administration vs single administration) [1, 5]: 87.88%
- AUCss of colchicine, Ratio (combined administration vs single administration) [1, 6]: 99.43%
- Css, max of colchicine, Ratio (combined administration vs single administration) [1, 6]: 90.08%
- AUCss of colchicine, geometric mean [1, 7]: 18.4329 ng·h/mL
- Css, max of colchicine, geometric mean [1, 7]: 2.5089 ng/mL

SMILES: O=C([O-])C1(Sc2ccnc3ccc(Br)cc23)CCC1.[Na+] [compound of Formula I-1]
- effect of febuxostat on the steady-state exposure level of the compound of Formula I-1 ([1]; combined administration of febuxostat and the compound of Formula I-1): substantially no effect
- Css, max of the compound of Formula I-1, geometric mean ([1]; combined administration with febuxostat 80 mg (colchicine background)): 1687.45 ng/mL
- AUC ([1]; human, combined administration with febuxostat 80 mg (colchicine background)): 14700 ng·h/mL
- AUC ([1]; human, single administration, 10 mg qd (colchicine 0.5 mg qd background)): 14400 ng·h/mL
- AUCss of the compound of Formula I-1, Ratio (combined administration vs single administration) [1, 8]: 102.31%
- Css, max of the compound of Formula I-1, Ratio (combined administration vs single administration) [1, 8]: 101.68%
- Css, max of the compound of Formula I-1, geometric mean ([1]; single administration, 10 mg qd (colchicine 0.5 mg qd background)): 1659.60 ng/mL
- average maximum reduction of serum sUA concentration (serum uric acid (sUA); compound of Formula I-1 10 mg qd administered sequentially, relative to baseline (D3-0 h)): 60.883%

SMILES: Cc1nc(-c2ccc(OCC(C)C)c(C#N)c2)sc1C(=O)O [febuxostat]
- AUC0-last of febuxostat, Ratio (combined administration vs single administration) ([1]; human, in vivo): 88.54%
- Cmax of febuxostat, Ratio (combined administration vs single administration) ([1]; human, in vivo): 86.42%
- average maximum reduction of serum uric acid (sUA) concentration (serum uric acid (sUA); single administration of febuxostat 80 mg, compared with single administration of colchicine at steady state): 22.144%
- proportion of patients who achieved sUA<5.0 mg/dl (sUA): 46.8%
- incidence of kidney-related adverse events [2]: 5.5%
- serum creatinine increased ≥ 1.5 times the baseline [2]: 2.8%
- serum creatinine increased ≥2 times the baseline [2]: 0%
